# Assay results reported in patent US8853394B2, “Pharmacokinetically improved compounds” (Surface Logix, Inc., priority 2006, dated 2014).
# Where two headings read alike, the source gives them in different places.
# Experiments:
# [1] = tested on: PDE-1; test: PDE-1 inhibition; format: biochemical
# [2] = T1/2 in rat liver microsomes; format: in vitro ADME
# [3] = target: T1, PDE-6 bovine (Bos taurus, UniProt P11541+P23439); test: PDE-6 bovine inhibition; format: biochemical
# T1 sequence (P11541 2-856 limits assumed): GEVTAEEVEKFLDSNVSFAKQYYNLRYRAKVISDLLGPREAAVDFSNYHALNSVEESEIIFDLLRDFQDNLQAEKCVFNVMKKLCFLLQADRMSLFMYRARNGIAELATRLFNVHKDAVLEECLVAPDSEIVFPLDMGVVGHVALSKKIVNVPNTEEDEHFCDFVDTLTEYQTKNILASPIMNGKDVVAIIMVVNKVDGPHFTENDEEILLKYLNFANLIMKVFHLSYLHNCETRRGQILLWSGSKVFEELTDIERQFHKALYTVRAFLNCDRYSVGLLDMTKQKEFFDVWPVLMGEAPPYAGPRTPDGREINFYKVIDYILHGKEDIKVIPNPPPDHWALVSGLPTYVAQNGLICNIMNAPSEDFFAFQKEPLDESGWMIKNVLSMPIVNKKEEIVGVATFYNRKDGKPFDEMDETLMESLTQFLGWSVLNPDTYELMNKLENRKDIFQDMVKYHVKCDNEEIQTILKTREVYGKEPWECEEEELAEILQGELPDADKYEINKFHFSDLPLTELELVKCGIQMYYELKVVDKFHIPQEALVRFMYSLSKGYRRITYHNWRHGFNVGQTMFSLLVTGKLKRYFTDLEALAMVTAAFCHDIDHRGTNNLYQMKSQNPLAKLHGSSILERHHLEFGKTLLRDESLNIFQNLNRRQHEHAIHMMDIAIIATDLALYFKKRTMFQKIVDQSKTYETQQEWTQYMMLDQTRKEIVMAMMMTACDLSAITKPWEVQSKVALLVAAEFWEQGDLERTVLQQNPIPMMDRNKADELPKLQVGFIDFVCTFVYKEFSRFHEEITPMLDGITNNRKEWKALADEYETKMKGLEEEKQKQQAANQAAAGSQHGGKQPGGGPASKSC
# T1 sequence (P23439 2-850 limits assumed): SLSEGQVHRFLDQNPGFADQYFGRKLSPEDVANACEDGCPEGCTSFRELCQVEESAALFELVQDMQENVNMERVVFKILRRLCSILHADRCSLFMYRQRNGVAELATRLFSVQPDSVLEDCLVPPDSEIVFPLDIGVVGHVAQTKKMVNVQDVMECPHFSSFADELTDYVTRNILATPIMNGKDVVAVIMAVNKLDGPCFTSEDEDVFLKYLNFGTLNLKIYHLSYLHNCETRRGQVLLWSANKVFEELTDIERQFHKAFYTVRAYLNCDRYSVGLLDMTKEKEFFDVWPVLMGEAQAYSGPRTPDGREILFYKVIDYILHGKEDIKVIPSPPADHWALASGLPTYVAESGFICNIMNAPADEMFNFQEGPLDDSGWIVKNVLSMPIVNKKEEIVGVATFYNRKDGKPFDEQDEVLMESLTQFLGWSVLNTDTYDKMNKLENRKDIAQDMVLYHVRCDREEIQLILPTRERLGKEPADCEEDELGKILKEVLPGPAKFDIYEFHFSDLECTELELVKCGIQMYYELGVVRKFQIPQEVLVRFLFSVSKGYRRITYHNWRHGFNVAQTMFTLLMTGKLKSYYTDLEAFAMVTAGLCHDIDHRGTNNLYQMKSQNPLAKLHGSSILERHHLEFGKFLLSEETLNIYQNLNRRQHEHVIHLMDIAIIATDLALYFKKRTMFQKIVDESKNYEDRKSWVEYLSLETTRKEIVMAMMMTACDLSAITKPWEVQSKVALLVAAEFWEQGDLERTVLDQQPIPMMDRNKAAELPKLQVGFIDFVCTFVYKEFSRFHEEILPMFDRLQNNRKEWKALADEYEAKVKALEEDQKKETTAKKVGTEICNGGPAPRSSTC
# [4] = T1/2 in human liver microsomes; format: in vitro ADME
# [5] = Solubility; format: physicochemical
# [6] = PAMPA permeability; format: in vitro ADME; settings: Hex, read-out: PAMPA Hex
# [7] = target: PDE5 (Homo sapiens, UniProt O76074); test: PDE-5 human inhibition; format: biochemical
# [8] = tested on: PDE-4 human; test: PDE-4 human inhibition; format: biochemical
# [9] = Protein Binding; format: in vitro ADME; settings: human, human serum components
# Experimental: In general, protein binding is assessed by measuring the capacity of molecules of the invention to bind to one or more human serum components or mimics thereof. In one embodiment, suitable functional residues may be identified by screening of surfaces comprising such residues for their ability to resist adsorption of serum components, including, but not limited to serum proteins, and preferably human serum proteins. Candidate residues can be screened directly by attaching them to a solid support and testing the support for protein resistance. Alternatively, candidate residues are incorporated into, or linked to molecules of pharmaceutical interest. Such compounds may be synthesized on a solid support, or bound to a solid support after synthesis. In a non-limiting example of a direct binding assay, immobilized candidate functional residues or molecules incorporating such residues are tested for their ability to bind serum components. The serum components can be labeled with a signaling moiety for detection, or a labeled secondary reagent that binds to such serum components can be used.
# A direct binding analysis can also be preformed in liquid phase. For example, test compounds can be mixed with one or more serum components in liquid phase, and the unbound molecules determined.
# [10] = Non-Spec Binding; format: in vitro ADME
# [11] = Caco-2 permeability; format: in vitro ADME; settings: human; for Papp A→B: AtoB; for Papp B→A: BtoA
# Excerpt: Several model systems are available, employing monolayers of various cell types, for evaluation of active transport of pharmaceutically active substances. For example, monolayers of Caco-2 intestinal epithelial cells can be used to evaluate active transport of substances between the intestine and the bloodstream. When plated on a surface which allows the flow of material from apical to basolateral and vice versa, such cells form a biological membrane which can be used to simulate physiological absorption and bioavailability. In another example, mouse brain capillary endothelial cell (MBEC) lines have been established to evaluate active transport in and out of the central nervous system. Another example of such cells is HT29 human colon carcinoma cells. Further, monolayers expressing particular transporter proteins can be established using transfected cells. For example, Sasaki et al (2002) J. Biol. Chem. 8:6497 used a double-transfected Madin-Darby canine kidney cell monolayer to study transport of organic anions.
# [12] = tested on: PDE-3; test: PDE-3 inhibition; format: biochemical
# [13] = Chronic Cytoxicity (mouse 3T3); format: cell-based; settings: 3T3 cells
# [14] = pH 2.7, aqueous buffer, read-out: Solubility (ug/mL) pH 2.7
# [15] = pH 7.4, aqueous buffer, read-out: Solubility (ug/mL) pH 7.4
SMILES,IC50 [1] [nM],half-life [2] [min],IC50 [3] [nM],half-life [4] [min],"solubility [5, 14] [µg/mL]","solubility [5, 15] [µg/mL]",Papp [6] [×10⁻⁶ cm/s],IC50 [7] [nM],IC50 [8] [nM],fraction unbound [9],Non-Spec Binding (%) [10] [%],Papp A→B [11] [×10⁻⁶ cm/s],Papp B→A [11] [×10⁻⁶ cm/s],IC50 [12] [nM],GI50 [13] [nM],LC50 (50% lethal concentration) [13] [nM]
CCCc1nc(C)c2c(=O)[nH]c(-c3cc(S(=O)(=O)N4CCN(C(=O)CN(C)C)CC4)ccc3OCC)nn12 [Compound 1],95,45.4,4.4,34,124,111,~1.06,0.14,–,–,–,–,–,–,–,–
CCCc1nc(C)c2c(=O)[nH]c(-c3cc(S(=O)(=O)N(CC)CCOC)ccc3OCC)nn12 [Compound 9],12.9,9.8,0.946,9.83,–,–,133,0.113,1120,0.01,35.85,55.1,60.9,697,87300,> 100000
CCCc1nc(C)c2c(=O)[nH]c(-c3cc(S(=O)(=O)N4CCN(CCN5CCOCC5)CC4)ccc3OCC)nn12 [Compound 15],46.3,34,1.09,30.8,115,110,–,0.16,3690,0.155,8.78,8.45,40.6,2230,–,–
CCCc1nc(C)c2c(=O)[nH]c(-c3cc(S(=O)(=O)N(C)CC(OC)OC)ccc3OCC)nn12 [Compound 17],2.6,6.83,0.86,1.08,–,–,–,0.066,1100,0.016,36.5,40.5,39.4,391,–,–
CCCc1nc(C)c2c(=O)[nH]c(-c3cc(S(=O)(=O)N4CCN(CC(=O)NC(C)C)CC4)ccc3OCC)nn12 [Compound 18],16,33,0.64,44.1,–,–,–,0.037,1300,0.0945,22.15,4.11,46.3,507,–,–
CCCc1nc(C)c2c(=O)[nH]c(-c3cc(S(=O)(=O)N4CCN(C(=O)C5CCCO5)CC4)ccc3OCC)nn12 (stereo not shown) [Compound 19],2.55,24,0.685,22.4,–,–,–,0.056,686,0.104,15.5,7.86,44.8,1200,–,–
CCCc1nn(C)c2c(=O)[nH]c(-c3cc(S(=O)(=O)N4CCN(CCN5CCOCC5)CC4)ccc3OCC)nc12 [Compound 21],76,34,12,47,112,26,–,1.5,3700,0.071,68.4,–,–,9600,–,–
